Laboratory results reported in US20220242879A1, “FUSED HETEROCYCLE DERIVATIVES” (Janssen Sciences Ireland Unlimited Company, priority 2019, published 2022).

Tests used:
[1] = tested on: HBV; assay: HBV replication inhibition assay (BDNA assay), HepG2.2.15 cells; type: cell-based, Hepatitis B virus; conditions: 6 days, HBV DNA in supernatant by branched DNA QuantiGene
Procedure: HBV replication inhibition by the disclosed compounds were determined in cells infected or transfected with HBV or cells with stably integrated HBV, such as HepG2.2.15 cells (Sells et al. 1987). In this example, HepG2.2.15 cells were maintained in cell culture medium containing 10% fetal bovine serum (FBS), Geneticin, L-glutamine, penicillin and streptomycin. HepG2.2.15 cells were seeded in 96-well plates at a density of 40,000 cells/well and were treated with serially diluted compounds at a final DMSO concentration of 0.5% either alone or in combination by adding drugs in a checker box format. […] HBV DNA was denatured by addition of 0.2 M NaOH and detected using a branched DNA (BDNA) QuantiGene assay kit according to manufacturer recommendation (Affymetrix). HBV DNA levels were also quantified using qPCR, based on amplification of encapsidated HBV DNA extraction with QuickExtraction Solution (Epicentre Biotechnologies) and amplification of HBV DNA using HBV specific PCR probes that can hybridize to HBV DNA and a fluorescently labeled probe for quantitation. In addition, cell viability of HepG2.2.15 cells incubated with test compounds alone or in combination was determined by using CellTitre-Glo reagent according to the manufacturer protocol (Promega). […]

[2] = tested on: HBV; assay: Anti-HBV activity, HepG2.117 cell line, intracellular HBV DNA by real-time PCR; type: cell-based, Hepatitis B virus; conditions: mean value; HepG2.117 cells, 3 days of treatment, intracellular HBV DNA; read-out: HBV-AVE-HepG2.117 EC50
Procedure: The anti HBV activity was measured using the HepG2.117 cell line, a stable, inducibly HBV producing cell line, which replicates HBV in the absence of doxicycline (Tet-off system). The HepG2 cell line is available from ATCC® under number HB-8065. Transfection of the HepG2 cell line can be as described in Sun and Nassal 2006 Journal of Hepatology 45 (2006) 636-645 “Stable HepG2- and Huh7-based human hepatoma cell lines for efficient regulated expression of infectious hepatitis B virus”.
For the antiviral assay, HBV replication was induced, followed by a treatment with serially diluted compound in 96-well plates. After 3 days of treatment, the antiviral activity was determined by, quantification of intracellular HBV DNA using real-time PCR and an HBV specific primer set and probe.

[3] = tested on: HepG2.117 cells; assay: Cytotoxicity, ATPlite Luminescence Assay; type: cell-based, human; conditions: mean value; cells incubated for 3 days, viability by ATPlite; read-out: TOX-HepC2.117 CC50
Procedure: Cytotoxicity of the compounds was tested using HepG2 or HepG2.117 cells, incubated for 3 days in the presence of compounds. The viability of the cells was assessed using the PERKIN ELMER ATPlite Luminescence Assay System.”

| Compound | EC50 [1] | EC50 [2] | CC50 [3] |
| --- | --- | --- | --- |
| N#Cc1cc(NC(=O)N2CCc3nn4c(c3C2)-c2nocc2CC(COCC(F)F)C4)ccc1F (single isomer, unassigned) [Example 5a, (5S*)-N-3-Cyano-4-fluorophenyl)-5-(2,2-difluoroethoxy)methyl)-5,6,9,10-tetrahydro-4H-isoxazolo[3,4-c]pyrido[4′,3′:3,4]pyrazolo[1,5-a]azepine-11(12H)-carboxamide] | 82 nM |  |  |
| CNC(=O)[C@@H]1Cc2conc2-c2c3c(nn2C1)C[C@@H](C)N(C(=O)c1ccc(Cl)c(Cl)c1)C3 (single isomer, unassigned) [Compound 47] |  | 265 nM | > 50000 nM |
| N#Cc1cc(NC(=O)N2CCc3nn4c(c3C2)-c2nocc2CC(COCC(F)F)C4)ccc1F (single isomer, unassigned) [Example 7a, (5R*)-N-(3-Cyano-4-fluorophenyl)-5-((2,2-difluoroethoxy)methyl)-5,6,9,10-tetrahydro-4H-isoxazolo[3,4-c]pyrido[4′,3′:3,4]pyrazolo[1,5-a]azepine-11(12H)-carboxamide] | 21 nM |  |  |
